Test results from patent US20240009195A1, “NOVEL USES” (INTRA-CELLULAR THERAPIES, INC., priority 2020, published 2024).

Legend:
hPDE1C = hPDE1C (Homo sapiens, UniProt Q14123); test: IMAP PDE assay, selectivity table; type: biochemical
Description: (§1) The generation of GMP-fluorescein from cGMP-fluorescein can be quantitated, using, for example, the IMAP (Molecular Devices, Sunnyvale, CA) immobilized-metal affinity particle reagent.
(§2) Briefly, the IMAP reagent binds with high affinity to the free 5′-phosphate that is found in GMP-fluorescein and not in cGMP-fluorescein. The resulting GMP-fluorescein-IMAP complex is large relative to cGMP-fluorescein. Small fluorophores that are bound up in a large, slowly tumbling, complex can be distinguished from unbound fluorophores, because the photons emitted as they fluoresce retain the same polarity as the photons used to excite the fluorescence.
(§3) In the phosphodiesterase assay, cGMP-fluorescein, which cannot be bound to IMAP, and therefore retains little fluorescence polarization, is converted to GMP-fluorescein, which, when bound to IMAP, yields a large increase in fluorescence polarization (Amp). Inhibition of phosphodiesterase, therefore, is detected as a decrease in Amp. […]
(§4) The reaction is incubated in dark at room temperature for 15 min. […] The plate is incubated at room temperature for 1 hour to allow IMAP binding to proceed to completion, and then placed in an Envision multimode microplate reader (PerkinElmer, Shelton, CT) to measure the fluorescence polarization (Amp).
(§5) A decrease in GMP concentration, measured as decreased Amp, is indicative of inhibition of PDE activity.

[1] = tested on: guinea pig cardiomyocytes; test: Glucagon co-administration with PDE1 inhibitor in guinea pig cardiomyocytes (sarcomere shortening, Ca2+ transients); type: cell-based; conditions: glucagon (1 μM) plus Compound 1 (1 μM) vs glucagon alone, 37° C., pacing at 1 Hz
Description: Studies were carried out to test the effect of glucagon co-administration with a PDE1 inhibitor in guinea pig cardiomyocytes. Myocytes were isolated according to Liu et al., Circulation Research, 2014. A thoracotomy was performed on anesthetized guinea pigs to remove the heart. The aorta was cannulated on a Langendorf apparatus fitted with a heating jacket circulating water at 37° C., and were retrogradely perfused for 5 minutes at 8 ml/min. The perfusate was switched to a Tyrode's solution containing […] (Worthington) and protease type 14 (Sigma-Aldrich) for 7-9 minutes. The solution was switched to a modified Kraft-Bruhe (KB) buffer for 5 minutes, before being minced and filtered to yield single cells. Isolated cells were incubated in a modified KB buffer (Isenberg et al., Pflugers Arch, 1982] for an hour, before being placed in supplemented M199 ACCIT medium. (Ellingsen et al., American J Physiology, 1993) Cells were kept at room temperature, and used within 7 hours.
Changes in cell sarcomere shortening and Ca^2+ transients were measured using a customized IonOptix system previously described. (Hashimoto et al., Circulation, 2018). Briefly, cells were loaded using 1 μM Fura-2 for 15 minutes, and washed out for at least 20 minutes. Baseline recording was made in Tyrode's buffer described above, with 0.1% DMSO. […]

hPDE1A = hPDE1A (Homo sapiens, UniProt P54750); test: IMAP PDE assay, selectivity table; type: biochemical
Chain of hPDE1A (P54750 whole entry): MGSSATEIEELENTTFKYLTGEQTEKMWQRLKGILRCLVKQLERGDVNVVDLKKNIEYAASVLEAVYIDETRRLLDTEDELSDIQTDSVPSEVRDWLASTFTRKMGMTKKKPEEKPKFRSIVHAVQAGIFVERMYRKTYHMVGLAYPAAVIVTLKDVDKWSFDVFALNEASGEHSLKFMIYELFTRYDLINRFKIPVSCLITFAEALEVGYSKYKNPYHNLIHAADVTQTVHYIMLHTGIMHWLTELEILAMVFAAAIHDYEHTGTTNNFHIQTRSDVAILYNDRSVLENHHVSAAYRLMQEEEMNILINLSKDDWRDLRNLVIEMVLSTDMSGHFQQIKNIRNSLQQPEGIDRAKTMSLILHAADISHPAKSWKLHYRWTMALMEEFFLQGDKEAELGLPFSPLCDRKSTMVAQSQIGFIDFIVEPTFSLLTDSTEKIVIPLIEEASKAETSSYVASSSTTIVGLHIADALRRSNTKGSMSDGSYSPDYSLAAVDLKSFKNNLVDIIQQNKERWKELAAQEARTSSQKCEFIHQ
Description: as §1, §2, §3, §4, §5

Chain of hPDE1C (Q14123 whole entry): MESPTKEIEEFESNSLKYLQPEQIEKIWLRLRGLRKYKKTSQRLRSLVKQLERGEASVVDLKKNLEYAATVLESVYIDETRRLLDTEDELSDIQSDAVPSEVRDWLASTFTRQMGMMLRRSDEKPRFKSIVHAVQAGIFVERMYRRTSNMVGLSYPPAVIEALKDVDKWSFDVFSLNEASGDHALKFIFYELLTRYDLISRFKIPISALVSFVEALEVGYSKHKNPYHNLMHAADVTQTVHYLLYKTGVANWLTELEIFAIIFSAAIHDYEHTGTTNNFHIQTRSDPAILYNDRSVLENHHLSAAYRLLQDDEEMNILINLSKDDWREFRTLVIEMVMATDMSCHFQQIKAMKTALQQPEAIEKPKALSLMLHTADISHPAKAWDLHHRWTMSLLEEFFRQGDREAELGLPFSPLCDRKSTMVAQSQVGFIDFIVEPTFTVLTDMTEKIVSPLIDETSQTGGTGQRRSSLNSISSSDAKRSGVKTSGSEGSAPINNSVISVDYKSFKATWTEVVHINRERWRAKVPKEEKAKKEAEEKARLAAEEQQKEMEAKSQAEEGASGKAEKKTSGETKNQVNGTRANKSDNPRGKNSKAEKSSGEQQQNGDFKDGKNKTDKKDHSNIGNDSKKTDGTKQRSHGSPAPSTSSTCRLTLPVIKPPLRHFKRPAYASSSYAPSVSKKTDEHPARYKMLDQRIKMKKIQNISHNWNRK

CN1C(=O)c2c(nn(Cc3ccc(-c4cccc(F)n4)cc3)c2Nc2ccccc2)N2C1=N[C@@H]1CCC[C@@H]12 [Compound 1]
IC50 (hPDE1C): 0.037 nM | change in cell sarcomere shortening ([1]; FIG. 1): increased the beneficial effects of glucagon | peak Ca2+ transient amplitude ([1]; FIG. 2): increased the beneficial effects of glucagon | IC50 (hPDE1A): 0.027 nM
